“And” between values parts separate entries of the source, which are not always exact repeats. Identical values can stand only once.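 Interpolation was linear, between the two tested concentrations surrounding the appropriate level; five concentrations were tested over 48 hours in 96-well plates. Here, GI50 denotes the concentration required for 50% inhibition of growth. TGI: total growth inhibition.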
Key:
Experiment in all cases: inhibition of tumour cell growth, NCI panel, 48 h
786-0 renal = test system: 786-0 renal
COLO 205 colon = test system: COLO 205 colon
HCT-15 colon = test system: HCT-15 colon
HOP-62 NSCLC = test system: HOP-62 NSCLC
IGROV1 ovarian = test system: IGROV1 ovarian
PC-3 prostate = test system: PC-3 prostate
SF-268 CNS = test system: SF-268 CNS
SF-539 CNS = test system: SF-539 CNS
SW-620 colon = test system: SW-620 colon
UACC-257 melanoma = test system: UACC-257 melanoma

| Structure (SMILES) | TGI (786-0 renal) | TGI (COLO 205 colon) | TGI (HCT-15 colon) | TGI (HOP-62 NSCLC) | TGI (IGROV1 ovarian) | TGI (PC-3 prostate) | TGI (SF-268 CNS) | TGI (SF-539 CNS) | TGI (SW-620 colon) | TGI (UACC-257 melanoma) | GI50 (HOP-62 NSCLC) | GI50 (PC-3 prostate) | GI50 (SF-268 CNS) | GI50 (SF-539 CNS) | GI50 (UACC-257 melanoma) |
| --- | --- | --- | --- | --- | --- | --- | --- | --- | --- | --- | --- | --- | --- | --- | --- |
| COc1ccc(-c2nc(-c3ccc(OC)cc3)n(-c3ccccc3)n2)cc1 | > 100 µM | > 100 µM | > 100 µM | > 100 µM | > 100 µM | > 100 µM | > 100 µM | > 100 µM | > 100 µM | > 100 µM | – | – | – | – | – |
| N=c1c2sc3nc4ccccc4n3c2ncn1Cc1ccccc1 | > 100 µM | > 100 µM | > 100 µM | > 100 µM | > 100 µM | > 100 µM | > 100 µM | > 100 µM | > 100 µM | > 100 µM | – | – | – | – | – |
| CCO/C(O)=C(/C(=N)N1CCOCC1)C(=O)Nc1cccc(C(F)(F)F)c1 | > 100 µM | > 100 µM | > 100 µM | > 100 µM | > 100 µM | > 100 µM | > 100 µM | > 100 µM | > 100 µM | > 100 µM | – | – | – | – | – |
| CCOC(=O)COc1cc(-c2ccccc2F)nc2cc3c(cc12)OCO3 | > 100 µM | > 100 µM | > 100 µM | > 100 µM | > 100 µM | > 100 µM | > 100 µM | > 100 µM | > 100 µM | > 100 µM | – | – | – | – | – |
| N/C(=N\N=C\c1cc2ccccc2s1)c1cnccn1 | > 100 µM | > 100 µM | > 100 µM | > 100 µM | > 100 µM | > 100 µM | > 100 µM | > 100 µM | > 100 µM | > 100 µM | – | – | – | – | – |
| Cc1nc2cn3c(c2c(=O)[nH]1)CCCCC3 | > 100 µM | > 100 µM | > 100 µM | > 100 µM | > 100 µM | > 100 µM | > 100 µM | > 100 µM | > 100 µM | > 100 µM | – | – | – | – | – |
| COc1c(C)c(C/C=C(\C)CC/C=C(\C)CC/C=C(\C)CCC=C(C)C)c(OC)c(OC)c1OC | > 100 µM | > 100 µM | > 100 µM | > 100 µM | > 100 µM | > 100 µM | > 100 µM | > 100 µM | > 100 µM | > 100 µM | – | – | – | – | – |
| OC1(c2ccccc2)CC2CCC(C1)N2CCCC(O)(c1ccccc1)c1ccccc1 (stereo not given) | 25.6 µM | 30.8 µM | 27.3 µM | 29 µM | 29.9 µM | 16.2 µM | 30.1 µM | 16.8 µM | 22.4 µM | 4 µM | – | – | – | – | – |
| Oc1cc(O)c2c(c1)O[C@H](c1ccc(O)c(O)c1)[C@@H](O)C2 | > 100 µM | > 100 µM | > 100 µM | > 100 µM | > 100 µM | > 100 µM | > 100 µM | > 100 µM | > 100 µM | > 100 µM | – | – | – | – | – |
| COc1ccc(/C=C2/N=C(N/N=C\C(O)C(O)C(O)CO)NC2=O)cc1 (stereo not given) | > 100 µM | > 100 µM | > 100 µM | > 100 µM | > 100 µM | > 100 µM | > 100 µM | 40.1 µM | > 100 µM | > 100 µM | > 100 µM and 49.6 µM | > 100 µM and 39.3 µM | – | – | – |
| Cn1c(N/N=C/c2ccccc2)nc(-c2ccc3c(c2)OCO3)c(C#N)c1=O | > 100 µM | > 100 µM | > 100 µM | > 100 µM | > 100 µM | > 100 µM | > 100 µM | > 100 µM | > 100 µM | > 100 µM | – | – | – | – | – |
| CCN(CC)CCNc1c2ccccc2nc2cccc([N+](=O)[O-])c12 | 0.0266 µM and 0.0489 µM | 0.0176 µM | 0.0205 µM and 0.0398 µM | 0.0164 µM | 0.0267 µM | 0.0122 µM | 0.056 µM and 0.42 µM | 0.0472 µM and 0.251 µM | 0.0395 µM and 0.172 µM | 0.0502 µM and 0.065 µM | – | – | 0.0193 µM | 0.107 µM | 0.022 µM |
| NC(Cc1ccc(O)cn1)C(=O)NC(C(=O)O)c1ccccc1 (stereo not given) | > 100 µM | > 100 µM | > 100 µM | > 100 µM | > 100 µM | > 100 µM | > 100 µM | > 100 µM | > 100 µM | > 100 µM | – | – | – | – | – |
| Nc1nc(Cl)cc(NCC2(CO)CCCCC2)n1 | > 100 µM | > 100 µM | > 100 µM | > 100 µM | > 100 µM | > 100 µM | > 100 µM | > 100 µM | > 100 µM | > 100 µM | – | – | – | – | – |
| COc1ccccc1C1C2=C(COC2=O)Oc2cc3c(cc21)OCO3 (stereo not given) | 28 µM | 14.2 µM | > 84.6 µM | > 100 µM | > 100 µM | > 100 µM | 85.8 µM | 5.32 µM | > 100 µM | > 100 µM | – | – | – | – | – |
| c1ccc(-c2cnc(SC(c3ccccc3)c3ccccc3)[nH]2)cc1 | > 100 µM | 44.1 µM | 38.8 µM | > 100 µM | > 100 µM | 84.7 µM | > 100 µM | > 100 µM | > 100 µM | 55.5 µM | – | – | – | – | – |
| Cc1ccc(C2(O)c3ccccc3C(=O)N(C)C2(O)c2ccc(C)cc2)cc1 (stereo not given) | > 100 µM | > 100 µM | > 100 µM | 49.5 µM | > 100 µM | > 100 µM | 50.6 µM | > 100 µM | > 100 µM | > 100 µM | – | – | – | – | – |
| Cc1cc(C)cc(Nc2nnc3n2S(=O)(=O)c2cc(C)c(Cl)cc2S3)c1 | > 100 µM | > 100 µM | 28.3 µM | 41.6 µM | 80.6 µM | 10.1 µM | 31.1 µM | 13.7 µM | 21.1 µM | 30.5 µM | – | – | – | – | – |
| Clc1ccc(Nc2ncco2)cc1Cl | > 10 µM | > 10 µM | > 10 µM | > 10 µM | > 10 µM | > 10 µM | > 10 µM | > 10 µM | > 10 µM | > 10 µM | – | – | – | – | – |
| COc1ccc2c(c1)CC[C@@H]1[C@@H]2CC[C@]2(C)/C(=N/OCCN3CCCC3)CC[C@@H]12 | 3.37 µM | 3.06 µM | 2.65 µM | 4.67 µM | 18.4 µM | 13.5 µM | 14.4 µM | 3.92 µM | 3.68 µM | 3.81 µM | – | – | – | – | – |
